Measurements reported in patent US10174047B2, “Thienodiazepine derivatives or pharmaceutically acceptable salts thereof, and pharmaceutical composition including the same as an active ingredient” (Industry-University Cooperation Foundation Hanyang …, priority 2015, dated 2019).
Read-outs that look alike come from different tables or passages of the source.

System: A375P cell line (melanoma)
Experiment: Proliferation inhibition activity against A375P cell line (MTT assay)
Type: cell-based
Conditions: A375P melanoma cells; for GI50: MTT assay; for effects against A375P: statement in words
Protocol: Measurement of Proliferation Inhibition Activity Against A375P Cell Line (Melanoma)
An A375P cell line purchased from ATCC was cultured in a DMEM medium [containing 10% FBS, 1% penicillin/streptomycin] at 37° C. in the presence of 5% CO2. The cultured A375P cell line was taken using 0.05% trypsin-0.02% EDTA, and seeded into a 96-well plate at a density of 5×10^3 cells per well.
Cell viability was measured using an MTT [3-(4,5-dimethylthiazol-2-yl)-2,5-diphenyltetrazolium bromide] assay (CellTiter 96 Assay, Promega) as follows. 15 μl of dye was placed per well, the cells were cultured for 2 hours, and then treated with 100 μl of a stop solution, and after 24 hours, absorbance was measured. One day after plating, they were treated with compounds. For treatment with compounds, […] of stock was prepared, and serially diluted to one-third in dimethyl sulfoxide (DMSO) to prepare a 12-point test compound plate, and 0.5 μl was added (final concentration DMSO 0.5%).
In the following Tables 1 to 3, in a case of GI50 being 10 to 30 μM, it was indicated as (+), in a case of it being 1 to 10 μM, it was indicated as (++), and in case of being less than 1 μM, it was indicated as (+++).

Compound | GI50 (read-out: A375P (GI50)) [µM] | effects against A375P | GI50 (read-out: GI50 value against A375P) [µM]
O=C1CC(c2cccc(NC(=O)C(c3ccc(Cl)cc3)c3ccc(Cl)cc3)c2)=Nc2cscc2N1 [Example 26, 2,2-bis(4-chlorophenyl)-N-(3-(2-oxo-2,3-dihydro-1H-thieno[3,4-b][1,4]diazepine-4-yl)phenyl)acetamide] | 10 to 30 | – | –
O=C1CC(c2cccc(NC(=O)c3cnc4ccccc4c3)c2)=Nc2cscc2N1 [Example 37, N-(3-(2-oxo-2,3-dihydro-1H-thieno[3,4-b][1,4]diazepine-4-yl)phenyl)quinoline-3-carboxamide] | 10 to 30 | – | –
O=C1CC(c2ccc(NC(=O)c3ccc(Cl)cc3)cc2)=Nc2cscc2N1 [Example 13, 4-chloro-N-(4-(2-oxo-2,3-dihydro-1H-thieno[3,4-b][1,4]diazepine-4-yl)phenyl)benzamide] | 10 to 30 | – | –
O=C1CC(c2ccc(NC(=O)Nc3ccc(Cl)c(C(F)(F)F)c3)cc2)=Nc2cscc2N1 [Example 39, 1-(4-chloro-3-(trifluoromethyl)phenyl)-3-(4-(2-oxo-2,3-dihydro-1H-thieno[3,4-b][1,4]diazepine-4-yl)phenyl)urea] | < 1 | significant effects | –
O=C1CC(c2cccc(NC(=O)c3ccc(Cl)c(C(F)(F)F)c3)c2)=Nc2cscc2N1 [Example 18, 4-chloro-N-(3-(2-oxo-2,3-dihydro-1H-thieno[3,4-b][1,4]diazepine-4-yl)phenyl)-3-(trifluoromethyl)benzamide] | 1 to 10 | – | –
O=C1CC(c2cccc(NC(=O)c3cc(N4CCOCC4)cc(C(F)(F)F)c3)c2)=Nc2cscc2N1 [Example 20, 3-morpholino-N-(3-(2-oxo-2,3-dihydro-1H-thieno[3,4-b][1,4]diazepine-4-yl)phenyl)-5-(trifluoromethyl)benzamide] | < 1 | significant effects | –
Cc1cn(-c2cc(C(=O)Nc3ccc(C4=Nc5cscc5NC(=O)C4)cc3)cc(C(F)(F)F)c2)cn1 [Example 2, 3-(4-methyl-1H-imidazol-1-yl)-N-(4-(2-oxo-2,3-dihydro-1H-thieno[3,4-b][1,4]diazepine-4-yl)phenyl)-5-(trifluoromethyl)benzamide] | < 1 | significant effects | –
O=C1CC(c2ccc(NC(=O)c3ccc(N4CCOCC4)c(C(F)(F)F)c3)cc2)=Nc2cscc2N1 [Example 4, 4-morpholino-N-(4-(2-oxo-2,3-dihydro-1H-thieno[3,4-b][1,4]diazepine-4-yl)phenyl)-3-(trifluoromethyl)benzamide] | 1 to 10 | – | –
O=C1CC(c2ccc(NC(=O)Nc3ccccc3F)cc2)=Nc2cscc2N1 [Example 45, 1-(2-fluorophenyl)-3-(4-(2-oxo-2,3-dihydro-1H-thieno[3,4-b][1,4]diazepine-4-yl)phenyl)urea] | 10 to 30 | – | –
N#Cc1ccccc1Sc1ccccc1C(=O)Nc1ccc(C2=Nc3cscc3NC(=O)C2)cc1 [Example 15, 2-(2-cyanophenylthio)-N-(4-(2-oxo-2,3-dihydro-1H-thieno[3,4-b][1,4]diazepine-4-yl)phenyl)benzamide] | 10 to 30 | – | –
O=C(Cc1ccccc1F)Nc1cccc(C2=Nc3cscc3NC(=O)C2)c1 [Example 35, 2-(2-fluorophenyl)-N-(3-(2-oxo-2,3-dihydro-1H-thieno[3,4-b][1,4]diazepine-4-yl)phenyl)acetamide] | 10 to 30 | – | –
CN1CCN(c2cc(C(=O)Nc3ccc(C4=Nc5cscc5NC(=O)C4)cc3)cc(C(F)(F)F)c2)CC1 [Example 12, 3-(4-methylpiperazine-1-yl)-N-(4-(2-oxo-2,3-dihydro-1H-thieno[3,4-b][1,4]diazepine-4-yl)phenyl)-5-(trifluoromethyl)benzamide] | 10 to 30 | – | –
O=C1CC(c2ccc(NC(=O)c3cnn(-c4ccccc4)c3C(F)(F)F)cc2)=Nc2cscc2N1 [Example 7, N-(4-(2-oxo-2,3-dihydro-1H-thieno[3,4-b][1,4]diazepine-4-yl)phenyl)-1-phenyl-5-(trifluoromethyl)-1H-pyrazole-4-carboxamide] | 1 to 10 | – | –
CCN1CCN(Cc2ccc(NC(=O)Nc3cccc(C4=Nc5cscc5NC(=O)C4)c3)cc2C(F)(F)F)CC1 [Example 49, 1-(4-((4-ethylpiperazine-1-yl)methyl)-3-(trifluoromethyl)phenyl)-3-(3-(2-oxo-2,3-dihydro-1H-thieno[3,4-b][1,4]diazepine-4-yl)phenyl)urea] | < 1 | significant effects | –
O=C1CC(c2cccc(NC(=O)Nc3cc(Cl)cc(Cl)c3)c2)=Nc2cscc2N1 [Example 51, 1-(3,5-dichlorophenyl)-3-(3-(2-oxo-2,3-dihydro-1H-thieno[3,4-b][1,4]diazepine-4-yl)phenyl)urea] | 10 to 30 | – | –
CC(=O)N1CCC(C(=O)Nc2cccc(C3=Nc4cscc4NC(=O)C3)c2)CC1 [Example 25, 1-acetyl-N-(3-(2-oxo-2,3-dihydro-1H-thieno[3,4-b][1,4]diazepine-4-yl)phenyl)piperidine-4-carboxamide] | 10 to 30 | – | –
Cc1cc(C)cc(C(=O)Nc2ccc(C3=Nc4cscc4NC(=O)C3)cc2)c1 [Example 17, 3,5-dimethyl-N-(4-(2-oxo-2,3-dihydro-1H-thieno[3,4-b][1,4]diazepine-4-yl)phenyl)benzamide] | 10 to 30 | – | –
CNC(=O)c1cc(Oc2ccc(NC(=O)Nc3ccc(Cl)c(C(F)(F)F)c3)cc2)ccn1 [Sorafenib, reference compound] | – | – | 2.74
O=C(Cc1ccc(-c2ccccc2)cc1)Nc1cccc(C2=Nc3cscc3NC(=O)C2)c1 [Example 33, 2-(biphenyl-4-yl)-N-(3-(2-oxo-2,3-dihydro-1H-thieno[3,4-b][1,4]diazepine-4-yl)phenyl)acetamide] | 10 to 30 | – | –
